Converted amounts (≈) assume the structure as drawn. The source made the active and inactive calls. The calls are words filed in the database; no cut-off is given here.
Key:
[1] = Oral bioavailability in Sprague-Dawley rat at 5 mg/kg; format: ADME, organism-based; conditions: in vivo
[2] = Clearance in Sprague-Dawley rat at 1 mg/kg, iv and 5 mg/kg, po; format: ADME, organism-based; conditions: in vivo
Histamine H3 receptor [3] = molecular target: Histamine H3 receptor (Rattus norvegicus, UniProt Q9QYN8); assay: Displacement of [3H]NAMH from rat cloned […] expressed in CHO cells; format: cell-based
Chain of Histamine H3 receptor (Rattus norvegicus, UniProt Q9QYN8) (Q9QYN8 whole entry): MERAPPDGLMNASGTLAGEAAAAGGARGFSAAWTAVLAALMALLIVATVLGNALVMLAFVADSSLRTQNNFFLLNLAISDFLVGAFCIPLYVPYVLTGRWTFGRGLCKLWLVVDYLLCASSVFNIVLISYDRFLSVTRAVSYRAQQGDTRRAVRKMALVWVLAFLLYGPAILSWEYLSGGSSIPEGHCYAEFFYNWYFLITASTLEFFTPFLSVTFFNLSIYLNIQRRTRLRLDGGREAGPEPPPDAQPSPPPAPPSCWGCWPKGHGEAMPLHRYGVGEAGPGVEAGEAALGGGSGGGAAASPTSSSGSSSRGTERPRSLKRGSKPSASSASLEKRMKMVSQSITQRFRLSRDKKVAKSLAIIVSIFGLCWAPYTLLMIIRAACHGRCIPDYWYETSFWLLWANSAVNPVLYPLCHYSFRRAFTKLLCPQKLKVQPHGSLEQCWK

[4] = Half life in Sprague-Dawley rat at 1 mg/kg, iv and 5 mg/kg, po; format: ADME, organism-based; conditions: in vivo
Histamine H3 receptor [5] = molecular target: Histamine H3 receptor (Homo sapiens, UniProt Q9Y5N1); assay: Displacement of [3H]NAMH from human cloned […] expressed in CHO cells; format: cell-based
Chain of Histamine H3 receptor (Homo sapiens, UniProt Q9Y5N1) (Q9Y5N1 whole entry): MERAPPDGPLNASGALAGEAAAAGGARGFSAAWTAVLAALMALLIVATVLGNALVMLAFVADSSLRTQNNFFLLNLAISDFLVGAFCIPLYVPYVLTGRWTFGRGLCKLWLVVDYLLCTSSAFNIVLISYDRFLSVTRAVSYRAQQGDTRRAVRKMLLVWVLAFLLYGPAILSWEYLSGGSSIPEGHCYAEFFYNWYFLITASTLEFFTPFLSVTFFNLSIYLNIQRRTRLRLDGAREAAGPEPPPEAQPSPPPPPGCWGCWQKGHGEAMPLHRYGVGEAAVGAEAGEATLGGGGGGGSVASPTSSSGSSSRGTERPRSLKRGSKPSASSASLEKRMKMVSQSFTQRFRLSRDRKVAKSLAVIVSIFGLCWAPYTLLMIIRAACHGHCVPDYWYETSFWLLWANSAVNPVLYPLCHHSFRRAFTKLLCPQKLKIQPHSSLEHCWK

[6] = Ratio of drug level in brain to plasma in Sprague-Dawley rat at 10 mg/kg, ip after 1 hr; format: ADME, organism-based; set-up: dose 10 mg/kg, route intraperitoneal; conditions: brain and plasma, read-out: BPR
[7] = Half life in Sprague-Dawley rat at 1 mg/kg, iv; format: ADME, organism-based; set-up: dose 1 mg/kg, route intravenous; conditions: in vivo
Rattus norvegicus [8] = assay: Cognitive effect in Sprague-Dawley rat social recognition model assessed as enhancement of short-term memory at 0.01 to 0.1 mg/kg, po measured after 120 mins; format: functional, organism-based
[9] = Clearance in Sprague-Dawley rat at 1 mg/kg, iv and 10 mg/kg, po; format: ADME, organism-based; conditions: in vivo
[10] = Fraction unbound in Sprague-Dawley rat brain homogenate; format: ADME, tissue-based
[11] = Plasma protein binding in Beagle dog; format: ADME, cell-free, Canis lupus familiaris; conditions: read-out: PPB (converted)
Cytochrome P450 2D6 = Cytochrome P450 2D6 (Homo sapiens, UniProt P10635); assay: Inhibition of CYP2D6; format: ADME
Chain of Cytochrome P450 2D6 (P10635 whole entry): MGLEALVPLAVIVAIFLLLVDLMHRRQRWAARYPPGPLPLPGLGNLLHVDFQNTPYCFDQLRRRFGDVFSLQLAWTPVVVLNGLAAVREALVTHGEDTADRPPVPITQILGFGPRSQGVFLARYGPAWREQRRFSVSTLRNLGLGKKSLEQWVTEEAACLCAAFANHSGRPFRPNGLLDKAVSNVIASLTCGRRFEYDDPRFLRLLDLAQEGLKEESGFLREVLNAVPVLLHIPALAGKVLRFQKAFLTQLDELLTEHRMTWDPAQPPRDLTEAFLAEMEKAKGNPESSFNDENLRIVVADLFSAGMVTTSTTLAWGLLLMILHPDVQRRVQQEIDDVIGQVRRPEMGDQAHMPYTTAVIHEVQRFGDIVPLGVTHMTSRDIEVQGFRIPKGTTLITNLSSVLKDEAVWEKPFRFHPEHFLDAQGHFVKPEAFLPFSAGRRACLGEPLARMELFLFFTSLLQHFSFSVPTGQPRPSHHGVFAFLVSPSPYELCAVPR

[12] = Volume of distribution in Beagle dog at 1 mg/kg, iv and 3 mg/kg, po; format: ADME, organism-based, Canis lupus familiaris; conditions: in vivo
Cytochrome P450 2C9 = Cytochrome P450 2C9 (Homo sapiens, UniProt P11712); assay: Inhibition of CYP2C9; format: ADME
Chain of Cytochrome P450 2C9 (P11712 whole entry): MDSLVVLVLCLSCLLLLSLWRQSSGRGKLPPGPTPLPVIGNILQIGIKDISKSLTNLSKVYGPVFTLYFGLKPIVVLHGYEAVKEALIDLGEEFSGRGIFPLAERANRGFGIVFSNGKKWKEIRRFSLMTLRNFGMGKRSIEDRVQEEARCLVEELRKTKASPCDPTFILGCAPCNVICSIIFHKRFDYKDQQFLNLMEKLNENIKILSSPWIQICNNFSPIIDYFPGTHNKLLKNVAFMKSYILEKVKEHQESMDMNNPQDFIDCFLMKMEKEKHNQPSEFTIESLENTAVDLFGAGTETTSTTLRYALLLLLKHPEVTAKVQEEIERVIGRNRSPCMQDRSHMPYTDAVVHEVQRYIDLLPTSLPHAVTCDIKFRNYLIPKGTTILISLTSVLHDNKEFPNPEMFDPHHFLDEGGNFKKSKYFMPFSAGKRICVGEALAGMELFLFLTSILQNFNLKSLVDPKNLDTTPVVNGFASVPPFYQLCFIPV

[13] = Apparent permeability in human Caco2 cells; format: ADME, cell-based; conditions: Caco-2
Cytochrome P450 1A2 = molecular target: T1, Cytochrome P450 1A2 (Homo sapiens, UniProt P05177); assay: Inhibition of CYP1A2; format: ADME
T1 sequence (P05177 whole entry): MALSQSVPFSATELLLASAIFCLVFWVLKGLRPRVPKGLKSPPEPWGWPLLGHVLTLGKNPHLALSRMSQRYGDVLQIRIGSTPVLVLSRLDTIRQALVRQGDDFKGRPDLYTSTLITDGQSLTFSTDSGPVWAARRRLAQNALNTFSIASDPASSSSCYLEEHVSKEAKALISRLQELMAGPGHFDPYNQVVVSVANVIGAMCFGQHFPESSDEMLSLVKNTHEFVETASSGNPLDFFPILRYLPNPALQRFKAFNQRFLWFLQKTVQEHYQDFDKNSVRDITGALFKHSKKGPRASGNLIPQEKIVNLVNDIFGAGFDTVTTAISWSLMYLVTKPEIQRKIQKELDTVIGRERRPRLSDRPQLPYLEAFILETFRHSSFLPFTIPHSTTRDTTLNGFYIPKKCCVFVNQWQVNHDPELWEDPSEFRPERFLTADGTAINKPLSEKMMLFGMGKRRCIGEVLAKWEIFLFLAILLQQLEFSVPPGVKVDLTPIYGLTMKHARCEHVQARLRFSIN

[14] = Half life in Beagle dog at 1 mg/kg, iv and 3 mg/kg, po; format: ADME, organism-based, Canis lupus familiaris; conditions: in vivo
[15] = Clearance in Beagle dog at 1 mg/kg, iv and 3 mg/kg, po; format: ADME, organism-based, Canis lupus familiaris; conditions: in vivo
[16] = Oral bioavailability in Sprague-Dawley rat at 10 mg/kg; format: ADME, organism-based; conditions: in vivo
[17] = Oral bioavailability in Beagle dog at 3 mg/kg; format: ADME, organism-based, Canis lupus familiaris; conditions: in vivo
[18] = Plasma protein binding in human; format: ADME, cell-free; conditions: read-out: PPB (converted)
[19] = Oral bioavailability in cynomolgus monkey at 3 mg/kg; format: ADME, organism-based, Macaca fascicularis; conditions: in vivo
[20] = Volume of distribution in cynomolgus monkey at 1 mg/kg, iv and 3 mg/kg, po; format: ADME, organism-based, Macaca fascicularis; conditions: in vivo
[21] = Half life in human; format: ADME, organism-based; conditions: in vivo
[22] = Cmax in Beagle dog at 1 mg/kg, iv and 3 mg/kg, po; format: ADME, organism-based, Canis lupus familiaris; conditions: in vivo
[23] = Half life in Sprague-Dawley rat at 1 mg/kg, iv and 10 mg/kg, po; format: ADME, organism-based; conditions: in vivo
Mus musculus = assay: Toxicity in mouse assessed as changes in behavioral and physiologic state up to 300 mg/kg, po by Irwin test; format: organism-based; set-up: dose 300 mg/kg, route oral; conditions: in vivo
[24] = Half life in cynomolgus monkey at 1 mg/kg, iv; format: ADME, organism-based, Macaca fascicularis; set-up: dose 1 mg/kg, route intravenous; conditions: in vivo
[25] = Clearance in cynomolgus monkey at 1 mg/kg, iv and 3 mg/kg, po; format: ADME, organism-based, Macaca fascicularis; conditions: in vivo
[26] = Solubility of the compound in water at pH 2; format: physicochemical
[27] = Cmax in Sprague-Dawley rat at 1 mg/kg, iv and 10 mg/kg, po; format: ADME, organism-based; conditions: in vivo
[28] = AUC in Sprague-Dawley rat at 10 mg/kg, po; format: ADME, organism-based; set-up: dose 10 mg/kg, route oral; conditions: plasma
[29] = Cmax in cynomolgus monkey at 1 mg/kg, iv and 3 mg/kg, po; format: ADME, organism-based, Macaca fascicularis; conditions: in vivo
Rattus norvegicus [30] = assay: Inhibition of RAMH-induced dispogenia in po dosed Long Evans rat measured for 30 mins; format: functional
[31] = Half life in Beagle dog at 1 mg/kg, iv; format: ADME, organism-based, Canis lupus familiaris; set-up: dose 1 mg/kg, route intravenous; conditions: in vivo
[32] = AUC in cynomolgus monkey at 3 mg/kg, po; format: ADME, organism-based, Macaca fascicularis; set-up: dose 3 mg/kg, route oral; conditions: plasma
[33] = Solubility of the compound in water at pH 7.4; format: physicochemical
[34] = Plasma protein binding in Sprague-Dawley rat; format: ADME, cell-free; conditions: read-out: PPB (converted)
Cytochrome P450 3A4 = Cytochrome P450 3A4 (Homo sapiens, UniProt P08684); assay: Inhibition of CYP3A4; format: ADME
Chain of Cytochrome P450 3A4 (P08684 whole entry): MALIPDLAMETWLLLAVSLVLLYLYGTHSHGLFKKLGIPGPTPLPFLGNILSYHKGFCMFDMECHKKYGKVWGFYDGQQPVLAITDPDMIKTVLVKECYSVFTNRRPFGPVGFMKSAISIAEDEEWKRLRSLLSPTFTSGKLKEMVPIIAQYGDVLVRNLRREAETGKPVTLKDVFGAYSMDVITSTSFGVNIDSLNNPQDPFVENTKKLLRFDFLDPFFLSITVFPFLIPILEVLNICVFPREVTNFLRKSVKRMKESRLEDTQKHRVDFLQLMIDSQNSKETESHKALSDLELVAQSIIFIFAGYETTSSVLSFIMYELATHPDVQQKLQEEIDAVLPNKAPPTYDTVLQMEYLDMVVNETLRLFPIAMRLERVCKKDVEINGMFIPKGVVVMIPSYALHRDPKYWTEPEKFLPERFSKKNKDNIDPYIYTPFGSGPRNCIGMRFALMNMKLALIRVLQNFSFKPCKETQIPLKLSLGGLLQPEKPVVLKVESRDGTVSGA

[35] = Half life in cynomolgus monkey at 1 mg/kg, iv and 3 mg/kg, po; format: ADME, organism-based, Macaca fascicularis; conditions: in vivo
Salmonella typhimurium = assay: Mutagenic activity in Salmonella Typhimurium by Ames test; format: toxicity, organism-based; conditions: salmonella enterica subsp. enterica serovar typhimurium
[36] = AUC in Beagle dog at 3 mg/kg, po; format: ADME, organism-based, Canis lupus familiaris; set-up: dose 3 mg/kg, route oral; conditions: plasma
Cytochrome P450 2C19 = Cytochrome P450 2C19 (Homo sapiens, UniProt P33261); assay: Inhibition of CYP2C19; format: ADME
Chain of Cytochrome P450 2C19 (P33261 whole entry): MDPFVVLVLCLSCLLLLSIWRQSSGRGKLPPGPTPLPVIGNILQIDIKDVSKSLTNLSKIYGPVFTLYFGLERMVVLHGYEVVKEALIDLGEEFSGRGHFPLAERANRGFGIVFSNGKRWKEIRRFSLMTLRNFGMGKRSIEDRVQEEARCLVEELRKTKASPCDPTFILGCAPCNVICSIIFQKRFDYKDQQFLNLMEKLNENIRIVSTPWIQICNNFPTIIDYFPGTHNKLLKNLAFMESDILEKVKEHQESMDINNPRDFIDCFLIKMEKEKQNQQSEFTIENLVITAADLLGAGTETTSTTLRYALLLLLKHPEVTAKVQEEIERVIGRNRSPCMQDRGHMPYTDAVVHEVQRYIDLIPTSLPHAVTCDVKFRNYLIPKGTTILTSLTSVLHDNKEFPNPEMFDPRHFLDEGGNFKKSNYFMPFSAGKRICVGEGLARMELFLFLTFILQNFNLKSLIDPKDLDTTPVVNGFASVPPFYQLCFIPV

[37] = Volume of distribution in Sprague-Dawley rat at 1 mg/kg, iv and 10 mg/kg, po; format: ADME, organism-based; conditions: in vivo

Cc1cccc(-n2ncc(-c3ccc(OCCCN4CCC[C@H]4C)cc3)cc2=O)n1
bioavailability [1]: 12% | clearance [2]: 23 mL/min/kg | Ki (Histamine H3 receptor [3]): 4.4 nM | half-life [4]: 2.2 h | Ki (Histamine H3 receptor [5]): 1.8 nM | Kp at 1 h [6]: 1

Cc1n[nH]c(=O)cc1-c1ccc(OCCCN2CCC[C@H]2C)cc1
bioavailability [1]: 20% | clearance [2]: 25 mL/min/kg | Ki (Histamine H3 receptor [3]): 5.1 nM | half-life [4]: 1.4 h | Ki (Histamine H3 receptor [5]): 1.6 nM | Kp at 1 h [6]: 1.6

O=c1cc(-c2ccc(OCCCN3CCCCC3)cc2)cn[nH]1
bioavailability [1]: 42% | clearance [2]: 24 mL/min/kg | Ki (Histamine H3 receptor [3]): 28 nM | half-life [4]: 1.6 h | Ki (Histamine H3 receptor [5]): 19 nM | Kp at 1 h [6]: 3

Cc1nn(-c2ccccn2)c(=O)cc1-c1ccc(OCCCN2CCC[C@H]2C)cc1
bioavailability [1]: 15% | clearance [2]: 13 mL/min/kg | Ki (Histamine H3 receptor [3]): 5 nM | half-life [4]: 1.3 h | Ki (Histamine H3 receptor [5]): 1.7 nM | Kp at 1 h [6]: 0.7

Cc1cccnc1-n1ncc(-c2ccc(OCCCN3CCC[C@H]3C)cc2)cc1=O
bioavailability [1]: 30% | clearance [2]: 34 mL/min/kg | Ki (Histamine H3 receptor [3]): 8.6 nM | half-life [4]: 1.8 h | Ki (Histamine H3 receptor [5]): 2.5 nM | Kp at 1 h [6]: 0.2

C[C@@H]1CCCN1CCCOc1ccc(-c2cnn(-c3ccccn3)c(=O)c2)cc1
half-life [7]: 1.7 h | Activity (Rattus norvegicus [8]): Active | clearance [9]: 20 mL/min/kg | fraction unbound [10]: 0.39 | fraction unbound [11]: 0.68 | IC50 (Cytochrome P450 2D6): > 30000 nM | Vd [12]: 5.9 L/kg | IC50 (Cytochrome P450 2C9): > 30000 nM | Papp [13]: 13.7 ×10⁻⁶ cm/s | IC50 (Cytochrome P450 1A2): > 30000 nM | half-life [14]: 0.8 h | clearance [15]: 19 mL/min/kg | bioavailability [16]: 78% | bioavailability [17]: 92% | clearance [2]: 19 mL/min/kg | fraction unbound [18]: 0.56 | bioavailability [19]: 96% | Vd [20]: 7.1 L/kg | half-life [21]: > 0.667 h | Cmax [22]: 417 ng/mL | half-life [4]: 1.7 h | half-life [23]: 4.5 h | Activity (Mus musculus): Non-toxic | half-life [24]: 3.9 h | Kp at 1 h [6]: 1.1 | clearance [25]: 21 mL/min/kg | solubility [26]: 1400 µg/mL (≈ 3590 µM) | Cmax [27]: 898 ng/mL | AUC [28]: 6800 ng·h/mL | Cmax [29]: 326 ng/mL | inhibition (Rattus norvegicus [30]): Dose-dependent effect | ED50 (Rattus norvegicus [30]; 0.5 h): 0.07 mg/kg | half-life [31]: 3.6 h | AUC [32]: 2080 ng·h/mL | solubility [33]: 900 µg/mL (≈ 2300 µM) | fraction unbound [34]: 0.55 | IC50 (Cytochrome P450 3A4): > 30000 nM | half-life [35]: 6.5 h | Activity (Salmonella typhimurium): Toxic | AUC [36]: 2400 ng·h/mL | IC50 (Cytochrome P450 2C19): > 30000 nM | Vd [37]: 3 L/kg

O=c1cc(-c2ccc(OCCCN3CCCCCC3)cc2)cnn1-c1ccccn1
bioavailability [1]: 28% | clearance [2]: 25 mL/min/kg | Ki (Histamine H3 receptor [3]): 12 nM | half-life [4]: 1.8 h | Ki (Histamine H3 receptor [5]): 5.3 nM | Kp at 1 h [6]: 1.8

C[C@@H]1CCCN1CCCOc1ccc(-c2ccc(=O)[nH]n2)cc1 [IRDABISANT]
bioavailability [16]: 83% | Ki (Histamine H3 receptor [3]): 8.5 nM | Kp at 1 h [6]: 2.6

Cn1ncc(-c2ccc(OCCCN3CCCCCC3)cc2)cc1=O
Ki (Histamine H3 receptor [3]): 22 nM | Ki (Histamine H3 receptor [5]): 8.1 nM

O=c1cc(-c2ccc(OCCCN3CCCCC3)cc2)cnn1-c1ccccn1
bioavailability [1]: 26% | clearance [2]: 11 mL/min/kg | Ki (Histamine H3 receptor [3]): 16 nM | half-life [4]: 1.6 h | Ki (Histamine H3 receptor [5]): 7.8 nM | Kp at 1 h [6]: 1.6

Reference: ChEMBL document CHEMBL1955733, “Optimization of 5-pyridazin-3-one phenoxypropylamines as potent, selective histamine H₃ receptor antagonists with potent cognition enhancing activity” (J Med Chem, 2012)
